Experiments:
[1] = system: Fischer rats renal grafts from cardiac arrest donation; assay: DCD renal graft preservation with xenon or argon with or without dexmedetomidine, then transplantation; format: in vivo, rat; conditions: UW saturated with 70% gas, with or without Dex 0.1 nM; day 8 after transplantation
Method: Briefly, after intravenous heparinization (300 U) in 1 ml saline via the penile vein under 2% isoflurane anaesthesia, cardiac arrest was induced by cervical dislocation (schedule 1 killing). The cessation of the heart beat was observed within 3-5 minutes and donor animals were kept for 40 minutes on a 37° C. pad.
This protocol was obtained from our pilot studies and the both graft injury and a therapeutic window can be achieved. The preserving solution was saturated with 70% nitrogen, xenon or argon gas, combined with or without dexmedetomidine 0.1 nM [32]. […] Macrophage infiltration and renal fibrosis were attenuated by the treatments on day 16 after surgery (FIGS. 12A-12D).
With respect to FIGS. 10A-10D, Fischer rats renal grafts from cardiac arrest donation were stored with UW preserving solution at 4° C., saturated with nitrogen or xenon or argon gas (70% N2 or Xe or Ar and 5% CO2 balanced with O2 supplemented with Dex), machine perfused for 4 hours and stored until 24 hours. Normal kidney graft serves as naive control (NC), grafts treated with preserving solution only served as sham, and the grafts were then transplanted into Lewis recipient and finally harvested day 8 after transplantation. (FIG. 10A) Renal morphology were assessed by H and E staining (n=4-6) and (FIG. 10B) evaluated by the injury scoring system. (FIG. 10C) TUNEL staining of renal tubules in renal cortex. […]

[2] = system: ex vivo renal grafts from brain death or cardiac arrest donors; assay: Rat hypothermic machine perfusion model; conditions: exposure of ex vivo grafts prior to engraftment
[3] = system: ex-vivo rat kidney; conditions: cited from earlier work
[4] = system: isografts, weak immune-allografts and strong immuno-allografts; conditions: xenon to living donor before graft retrieval or to recipient after engraftment; cited from earlier work
[5] = system: kidney; conditions: in vivo; cited from earlier work
[6] = system: Lewis rat lung grafts extracted after cardiac death; assay: DCD lung graft stored in Dex-saturated UW after donor treatment with Nrf-2 siRNA or atipamezole; conditions: given to donor before extraction
Method: Nrf-2 siRNA or scrambled siRNAs (negative control) (QIAGEN®) were dissolved in siRNA suspension buffer and further diluted in RNase-free PBS before use. siRNA targeting rat Nrf-2 (sc-37030, SANTA CRUZ BIOTECHNOLOGY®, USA) was administered through hydrodynamic tail vein injection. Nrf-2 or scrambled siRNA ([…] in 10 ml of PBS) was rapidly injected (within 30 s) via a tail vein under anaesthesia and allow to recover for 24 h before the experiment. Atipamezole (α2-adrenergic antagonist, SIGMA-ALDRICH®, St. Louis, Mo., USA, 250 μg/kg, i.p.) was administered 10 minutes graft extraction.
In order to further investigate the mechanisms underlying the protective effects of dexmedetomidine on lung grafts, Nrf-2 siRNA and atipamezole treatment was administered donor before lung grafts extraction. The grafts were subsequently stored in Dex-saturated UW solution. TLR-4 and RIP3 immunofluorescent labelling was performed in lung grafts, with and without Nrf-2 siRNA (FIG. 9A), and with and without atipamezole treatment (FIG. 9B). […] 3-nitrotyrosine and 4-hydroxynonenal immunofluorescent labelling was performed in lung alveolar cells at CI 16 h, with and without Nrf-2 siRNA or with and without atipamezole treatment (FIGS. 9E and 9F) at CI 16 h. […] Together, these findings indicate that upregulation of the Nrf-2 and α2 adrenergic pathways are both critical to the protective effects of Dex on lung grafts. […] With respect to FIGS. 9A-9K, Lewis rat lung grafts were extracted after cardiac death and stored in 4° C. UW solution saturated with Dex (0.1 nM) or without Dex (Vehicle) for 16 hours (lung graft cold ischemia CIO 16 hr). Nrf-2 siRNA or atipamezole was given to the donor before graft extracting. Dual labelling of Rip-3 (red) and TLR-4 (green) in lung tissue after (FIG. 9A) SiRNA treatment or (FIG. 9B) atipamezole. Fluorescent intensity of (FIG. 9C) RIPK3 and (FIG. 9D) TLR-4 in lung tissue. The expression of 3-nitrotyrosine and 4-hydroxynonenal was assessed with immunofluorescent labelling after (FIG. 9E) SiRNA treatment or (FIG. 9F) Atipamezole. Fluorescent intensity of (FIG. 9G) 3-nitrotyrosine and (FIG. 9H) 4-hydroxynonenal. Nuclei were counterstained with 4′,6-diamidino-2-phenylindole (DAPI) (blue). (FIGS. 9I and 9K) Histology (haematoxylin and eosin staining) of the lung graft and injury score. (FIG. 9J) HMGB-1 in lung graft tissue, were assessed by ELISA. Scale bar: 50 μm. […] NC: naïve control, rCI: renal graft cold ischemia. HMGB, high mobility group box 1 protein; CI, cold ischaemia; NC, naïve control; TLR-4, toll-like receptor 4.

[7] = system: brain; conditions: 70% argon; cited from earlier work
[8] = system: renal grafts from live donor; conditions: preserving solution saturated with argon; cited from earlier work
[9] = ice-cold Soltran saturated with 70% Xe, 24 hrs, vs 70% N2

In the case of `[Xe]` [xenon], the “renal architecture during prolonged cold preservation (H&E injury score, TUNEL)” value [1] is listed as “preserved the renal architrave”, the “organ graft injury, histologically and functionally” value [2] is listed as “prevent organ graft injury” and the delayed graft function ([3]; after engraftment) is listed as “reduced”. The renal inflammation ([3]; after engraftment) was “reduced”, the fibrosis ([3]; day 8 after surgery) was “significantly reduced” and the macrophage infiltration ([3]; day 8 after surgery) was “significantly reduced”. The “expression of Bcl-2” value [3, 9] was “enhanced expression”, the “expression of HSP-70” value [3, 9] was “enhanced expression” and the tubular cell death ([3]; twenty-four hrs after engraftment) was “significantly decreased”. The “morphological structure of the ex-vivo rat kidney” value ([3]; xenon-containing Soltran solution) was “well preserved”, the early graft injury [4] was “protected against early graft injury” and the graft survival [4] was “prolonged graft survival”. For the same compound, the “kidney warm ischemic injury” value [5] was “protect against kidney warm ischemic injury”.
In the case of `CCC1(c2cnc[nH]2)Cc2ccccc2C1` [atipamezole, Atipamezole], the “3-nitrotyrosine expression (fluorescent intensity)” value ([6]; CI 16 h) is reported as “significant increase”, the “4-hydroxynonenal expression (fluorescent intensity)” value ([6]; CI 16 h) is reported as “significant increase” and the “HMGB-1 expression in lung graft tissue (ELISA)” value ([6]; CI 16 hr) is reported as “significantly increased”. The “expression of RIP3 (fluorescent intensity)” value ([6]; CI 16 hr) was “enhanced expression”, the lung injury scoring ([6]; CI 16 hr) was “significant increase” and the “lung morphology (H&E)” value ([6]; CI 16 hr) was “deteriorated significantly”. The “expression of TLR-4 (fluorescent intensity)” value ([6]; CI 16 hr, p<0.01) was “enhanced expression”.
For `[Ar]` [argon], the “renal architecture during prolonged cold preservation (H&E injury score, TUNEL)” value [1] is given as “preserved the renal architrave”, the “organ graft injury, histologically and functionally” value [2] is given as “prevent organ graft injury” and the neuroprotection [7] is given as “neuro-protective”. For the same compound, the “preservation of renal grafts against hypothermic-ischemic injury” value [8] was “superior in preserving renal grafts”.

— patent US20200329698A1, “COMPOSITIONS FOR ORGAN GRAFT PRESERVATION AND METHODS OF USE” (Nobilis Therapeutics, Inc., priority 2019, published 2020)
